Measurements reported in patent US20260008760A1, “DIPEPTIDYL PEPTIDASE 1 INHIBITORS AND USES THEREOF” (Insmed Incorporated, priority 2024, published 2026).

Columns and labels:
DPP1 in HL-60 cells = DPP1 in HL-60 cells (Homo sapiens, UniProt P53634); assay: DPP1 Cell Single-Point Percent Inhibition Testing; format: cell-based; set-up: host or cells: HL-60 cells; conditions: final compound concentration 5 nM, n = 1
Description: Example 100. DPP1 Cell Single-Point Percent Inhibition Testing
HL-60 cells (ATCC; Manassas, VA) were maintained in RPMI-1640 supplemented with 20% heat-inactivated FBS and 1× Antibiotic Antimycotic (Cytiva; Marlborough, MA). Media was changed every three to four days and cells were not allowed to exceed 1×10^6 cells per mL. Prior to assay, cells were collected by centrifugation at 500 rcf for 3 minutes, resuspended in RPMI (with no additional supplements) and counted. Cells were diluted in RPMI to a concentration of 5×10^5 live cells per mL and transferred to black 96-well plates for assay, 60 μL per well. Test articles were diluted to 25 nM in RPMI plus 0.5% DMSO, and 20 μL was added to each assay well. Compound was allowed to pre-incubate with cells with gentle shaking at 100 rpm for 60 minutes at 37° C. in a cell culture incubator maintained at 5% CO2, after which 20 μL of 500 μM H-Gly-Phe-AFC cell-permeable substrate (MP Biomedicals; Solon, OH) in RPMI was added to each well, giving final compound concentration of 5 nM, a final substrate concentration of 100 μM and a final DMSO concentration of 0.1%. Plates were returned to the incubator with shaking at 100 rpm for 30 minutes, after which fluorescence was measured at Excitation/Emission 400/505 nm. Percent Inhibition was calculated from RFU values by first subtracting background values (wells in which RPMI was substituted for cells) from each well, and then subtracting background-subtracted RFU derived from wells that received a final concentration of 10 μM brensocatib. This value represents the non-specific substrate cleavage from the HL-60 cells, and the remaining RFU should theoretically be solely the contribution of DPP1 enzyme activity. The final percent inhibition value was calculated for each test article based on remaining RFU compared to RFU from wells that received only vehicle control.

human DPP1 enzyme = human DPP1 enzyme (Homo sapiens, UniProt P53634); assay: Human DPP1 Enzyme Single-Point Percent Inhibition Testing (HL-60 lysate); format: biochemical; set-up: A crude lysate of HL-60 cells (ATCC; Manassas, VA) was used as a source of human DPP1 enzyme; host or cells: HL-60 cells (crude lysate); conditions: final compound concentration of 10 nM, 400 μM H-Gly-Arg-AMC, n = 1
Sequence of human DPP1 enzyme (P53634 25-463): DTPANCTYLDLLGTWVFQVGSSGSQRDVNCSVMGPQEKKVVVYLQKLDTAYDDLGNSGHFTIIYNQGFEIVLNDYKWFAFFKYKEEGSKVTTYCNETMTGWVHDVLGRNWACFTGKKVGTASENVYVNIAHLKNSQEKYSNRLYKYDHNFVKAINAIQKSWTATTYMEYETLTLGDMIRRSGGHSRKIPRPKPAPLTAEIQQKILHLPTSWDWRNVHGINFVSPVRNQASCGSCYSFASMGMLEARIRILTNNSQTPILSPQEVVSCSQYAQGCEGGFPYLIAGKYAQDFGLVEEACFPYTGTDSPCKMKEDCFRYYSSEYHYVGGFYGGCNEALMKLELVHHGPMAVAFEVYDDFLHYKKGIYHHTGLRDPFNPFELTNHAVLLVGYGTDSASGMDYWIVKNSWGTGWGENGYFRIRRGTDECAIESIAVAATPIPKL
Description: Example 98. Human DPP1 Enzyme Single-Point Percent Inhibition Testing
A crude lysate of HL-60 cells (ATCC; Manassas, VA) was used as a source of human DPP1 enzyme in the assay. Lysate was prepared in 1% Triton X-100 in PBS at a concentration of 20,000 live cells per μL of lysis buffer and was centrifuged at 16,000 rcf for 10 minutes at 4° C., after which supernatant was collected and flash-frozen in liquid nitrogen. Test articles were applied to human DPP1 enzyme in Assay Buffer (25 mM MES pH 6.0, 50 mM NaCl, 5 mM DTT) in a total reaction volume of 125 μL. 25 μL of compound diluted to 50 nM in Assay Buffer plus 5% DMSO was first added to 50 μL of HL-60 lysate diluted to contain a DPP1 enzyme concentration of roughly 1 ng/μL and allowed to pre-incubate for 10 minutes at 37° C. after which 50 μL of 1000 μM H-Gly-Arg-AMC substrate (Bachem; St. Torrance, CA) was added, giving final compound concentration of 10 nM, a final substrate concentration of 400 μM and a final DMSO concentration of 1%. Substrate cleavage was measured for 90 minutes at 37° C., with fluorescence at Excitation/Emission 350/450 nm measured every 5 minutes. DPP1 concentration was interpolated based on its activity relative to a standard curve of activated human recombinant DPP1 enzyme. Percent inhibition at 10 nM was calculated for each test article based on remaining DPP1 activity compared to enzyme activity in wells that received only vehicle control.

Sequence of DPP1 in HL-60 cells (P53634 25-463): as above

Structure (SMILES)	inhibition at 0.005 µM (DPP1 in HL-60 cells)	inhibition at 0.01 µM (human DPP1 enzyme)
CO[C@H]1CCO[C@H](C(=O)NC(C#N)Cc2cc3c(cc2F)-c2ccc4oc(=O)n(C)c4c2CO3)CNC1 (stereo partly drawn) [Compound C17]	≤ 76.5%	40 to 66.7%
C[C@@H]1NC[C@@H](C(=O)NC(C#N)Cc2cc3c(cc2F)-c2cc4c(cc2CO3)oc(=O)n4C)OC[C@H]1O (stereo partly drawn) [Compound C19]	≤ 76.5%	≥ 66.7%
C[C@@H]1NC[C@@H](C(=O)NC(C#N)Cc2cc3c(cc2F)-c2ccc4oc(=O)n(C)c4c2CO3)OC[C@H]1O (stereo partly drawn) [Compound C20]	≤ 76.5%	≥ 66.7%
C[C@@H]1NC[C@@H](C(=O)NC(C#N)Cc2cc3c(cc2F)-c2cc4c(cc2CO3)oc(=O)n4C)OC[C@@H]1O (stereo partly drawn) [Compound C22]	≤ 76.5%	≥ 66.7%
C[C@@H]1NC[C@@H](C(=O)NC(C#N)Cc2cc3c(cc2F)-c2ccc4oc(=O)n(C)c4c2CO3)OC[C@@H]1O (stereo partly drawn) [Compound C23]	≤ 76.5%	40 to 66.7%
Cn1c(=O)oc2cc3c(cc21)-c1cc(F)c(CC(C#N)NC(=O)[C@@H]2CNCCCCO2)cc1OC3 (stereo partly drawn) [Compound C25]	76.5 to 93.9%	≥ 66.7%
Cn1c(=O)oc2ccc3c(c21)COc1cc(CC(C#N)NC(=O)[C@@H]2CNCCCCO2)c(F)cc1-3 (stereo partly drawn) [Compound C26]	≤ 76.5%	≤ 40%
Cn1c(=O)oc2cc3c(cc21)-c1cc(F)c(CC(C#N)NC(=O)[C@@H]2CNCCCO2)cc1OC3 (stereo partly drawn) [Compound C28]	76.5 to 93.9%	≥ 66.7%
CO[C@@H]1CCNC[C@@H](C(=O)N[C@H](C#N)Cc2ccc(-c3ccc4c(c3)C3(CCCN(C)C3)C(=O)N4C)cc2)OC1 (stereo partly drawn) [Compound F7]	≤ 76.5%	≥ 66.7%
CO[C@@H]1CCNC[C@@H](C(=O)N[C@H](C#N)Cc2ccc(-c3ccc4c(c3)C3(CCN(C)C3)OC4=O)cc2)OC1 (stereo partly drawn) [Compound F8]	≤ 76.5%	≥ 66.7%
CO[C@@H]1CCNC[C@@H](C(=O)N[C@H](C#N)Cc2ccc(-c3ccc4c(c3)C3(CCN(C5COC5)CC3)OC4)cc2)OC1 [Compound F9]	≤ 76.5%	≥ 66.7%
CO[C@@H]1CCNC[C@@H](C(=O)N[C@H](C#N)Cc2ccc(-c3ccc(CN4CCN(C)CC4)cc3)cc2)OC1 [Compound F10]	≤ 76.5%	≥ 66.7%
CO[C@@H]1CCNC[C@@H](C(=O)N[C@H](C#N)Cc2ccc(-c3ccc4c(c3)C3(CC4)CCN(C)CC3)cc2F)OC1 [Compound F11]	≤ 76.5%	≥ 66.7%
CO[C@@H]1CCNC[C@@H](C(=O)N[C@H](C#N)Cc2ccc(-c3ccc4c(c3)C3(CCCN(C)C3)C(=O)N4C)cc2F)OC1 (stereo partly drawn) [Compound F12]	≤ 76.5%	≥ 66.7%
CO[C@@H]1CCNC[C@@H](C(=O)N[C@H](C#N)Cc2ccc(-c3ccc4c(c3)C3(CCN(C)C3)OC4=O)cc2F)OC1 (stereo partly drawn) [Compound F14]	≤ 76.5%	≥ 66.7%
CO[C@@H]1CCNC[C@@H](C(=O)N[C@H](C#N)Cc2ccc(-c3ccc(CN4CCN(C)CC4)cc3)cc2F)OC1 [Compound F15]	≤ 76.5%	≥ 66.7%
CO[C@@H]1CCNC[C@@H](C(=O)N[C@H](C#N)Cc2ccc(-c3ccc(S(=O)(=O)N4CCC4)cc3)cc2)OC1 [Compound F16]	≤ 76.5%	≥ 66.7%

Structure (SMILES)	inhibition at 0.005 µM (DPP1 in HL-60 cells)	inhibition at 0.01 µM (human DPP1 enzyme)
CO[C@@H]1CCNC[C@@H](C(=O)N[C@H](C#N)Cc2ccc(-c3ccc(S(=O)(=O)N4CCC4)cc3)cc2F)OC1 [Compound F17]	≤ 76.5%	≥ 66.7%
CO[C@H]1CCO[C@H](C(=O)N[C@H](C#N)Cc2ccc(-c3ccc4c(c3)C3(CC4)CCN(C)CC3)cc2)CNC1 [Compound F18]	≤ 76.5%	≥ 66.7%
CO[C@H]1CCO[C@H](C(=O)N[C@H](C#N)Cc2ccc(-c3ccc4c(c3)C3(CCCN(C)C3)C(=O)N4C)cc2)CNC1 (stereo partly drawn) [Compound F19]	≤ 76.5%	40 to 66.7%
CO[C@H]1CCO[C@H](C(=O)N[C@H](C#N)Cc2ccc(-c3ccc4c(c3)C3(CN(C)C3)OC4=O)cc2)CNC1 [Compound F20]	≤ 76.5%	40 to 66.7%
CO[C@H]1CCO[C@H](C(=O)N[C@H](C#N)Cc2ccc(-c3ccc4c(c3)C3(CCN(C)C3)OC4=O)cc2)CNC1 (stereo partly drawn) [Compound F21]	≤ 76.5%	40 to 66.7%
CO[C@H]1CCO[C@H](C(=O)N[C@H](C#N)Cc2ccc(-c3ccc4c(c3)C3(CCN(C5COC5)CC3)OC4)cc2)CNC1 [Compound F22]	≤ 76.5%	40 to 66.7%
CO[C@H]1CCO[C@H](C(=O)N[C@H](C#N)Cc2ccc(-c3ccc(CN4CCN(C)CC4)cc3)cc2)CNC1 [Compound F23]	≤ 76.5%	≤ 40%
CO[C@H]1CCO[C@H](C(=O)N[C@H](C#N)Cc2ccc(-c3ccc4c(c3)C3(CC4)CCN(C)CC3)cc2F)CNC1 [Compound F24]	≤ 76.5%	≥ 66.7%
CO[C@H]1CCO[C@H](C(=O)N[C@H](C#N)Cc2ccc(-c3ccc4c(c3)C3(CCCN(C)C3)C(=O)N4C)cc2F)CNC1 (stereo partly drawn) [Compound F25]	≤ 76.5%	≥ 66.7%
CO[C@H]1CCO[C@H](C(=O)N[C@H](C#N)Cc2ccc(-c3ccc4c(c3)C3(CN(C)C3)OC4=O)cc2F)CNC1 [Compound F26]	≤ 76.5%	≥ 66.7%
CO[C@H]1CCO[C@H](C(=O)N[C@H](C#N)Cc2ccc(-c3ccc4c(c3)C3(CCN(C)C3)OC4=O)cc2F)CNC1 (stereo partly drawn) [Compound F27]	≤ 76.5%	≥ 66.7%
CO[C@H]1CCO[C@H](C(=O)N[C@H](C#N)Cc2ccc(-c3ccc(CN4CCN(C)CC4)cc3)cc2F)CNC1 [Compound F28]	≤ 76.5%	≤ 40%
CO[C@H]1CCO[C@H](C(=O)N[C@H](C#N)Cc2ccc(-c3ccc(S(=O)(=O)N4CCC4)cc3)cc2)CNC1 [Compound F29]	≤ 76.5%	≤ 40%
CO[C@H]1CCO[C@H](C(=O)N[C@H](C#N)Cc2ccc(-c3ccc(S(=O)(=O)N4CCC4)cc3)cc2F)CNC1 [Compound F30]	≤ 76.5%	40 to 66.7%
CCN1C(=O)Cc2ccc(-c3ccc(C[C@@H](C#N)NC(=O)[C@@H]4CNCC[C@@H](OC)CO4)cc3)cc21 [Compound G1]	≤ 76.5%	≥ 66.7%
CCN1C(=O)Cc2ccc(-c3ccc(C[C@@H](C#N)NC(=O)[C@@H]4CNCC(OC)CO4)cc3)cc21 (stereo partly drawn) [Compound G3]	76.5 to 93.9%	≥ 66.7%
